Assay results from patent publication US6407093B1, “1,4-Diazacycloheptane derivatives for the treatment of neurological disorders” (Astrazeneca UK Limited, priority 1998, dated 2002).
Where a name gives a salt, the structure may show the parent alone.

Legend:
[1] = target: T1, [3H]-emopamil binding site (Cavia porcellus, UniProt Q60490); test: (−)-3H-Emopamil binding to guinea pig liver membranes; conditions: 0.96 nM (−)-3H-emopamil, 60 minutes at 37° C.
T1 construct: Guinea pig liver membranes: 40 mg/mL original wet weight; from tissue; host or cells: guinea pig liver membranes
T1 sequence (Q60490 1-229): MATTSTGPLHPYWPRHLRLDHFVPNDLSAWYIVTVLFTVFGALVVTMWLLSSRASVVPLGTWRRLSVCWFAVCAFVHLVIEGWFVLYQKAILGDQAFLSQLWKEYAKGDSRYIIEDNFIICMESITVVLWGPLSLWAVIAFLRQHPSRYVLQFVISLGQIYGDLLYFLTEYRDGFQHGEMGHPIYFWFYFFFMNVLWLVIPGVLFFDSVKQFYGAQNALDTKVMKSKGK
Method: -^3H-Emopamil Binding to Guinea Pig Liver Membranes
The method of (−)-^3H-emopamil binding was a modification of Zech, C., Staudinger R., Mühlbacher, J. and Glossmann, H. Novel sites for phenylalkylamines: characterization of a sodium-sensitive drug receptor with (−)-^3H-emopamil. Eur. J. Pharm. 208: 119-130, 1991.
The reaction mixture contained:
Assay buffer: 10 mM Tris-HCl, 0.1 mM phenylmethylsulfonyl fluoride (PMSF), 0.2% bovine serum albumin (BSA), pH 7.4 at 4° C.
Radioligand: 0.96 nM (−)-^3H-emopamil (Amersham).
Guinea pig liver membranes: 40 mg/mL original wet weight.
This mixture was incubated for 60 minutes at 37° C. The incubation was terminated by filtering with a Brandel Cell Harvester over Whatman GF/C filters that had been soaked for at least 120 minutes in 0.3% polyethylenimine (PEI) and washed three times with 5 mL of wash buffer containing 10 mM Tris-HCl, 10 mM MgCl2, 0.2% BSA, pH 7.4 at 25° C. Specific binding was defined with 10 μM emopamil.
Guinea-pig Liver Membrane Preparation
Male guinea pigs were sacrificed by CO2 asphyxiation with dry ice. The livers were quickly excised and weighed and rinsed in membrane preparation buffer containing 10 mM Hepes, 1 mM Tris base-EDTA, 250 mM sucrose, pH 7.4. The livers were then minced, homogenized in 10 times volume with a motor driven Teflon-glass homogenizer with three strokes on ice. […]

[2] = target: L-type voltage sensitive calcium channels (3H-D888 binding site); test: 3H-D-888 binding to rat brain cortical membranes; conditions: 1 nM 3H-D888, rat cortical membranes, 60 minutes at 25° C.; in vitro selectivity test
Method: -^3H-D-888 Binding to Rat Brain Cortical Membranes
The method of ^3H-D-888 binding was a modification of Reynolds, I. J., Snowman, A. M. and Synder, S. H. (−)-[^3H] Desmethoxyverapamil labels multiple calcium channel modular receptors in brain and skeletal muscle membranes: differentiation by temperature and dihydropyridines. J. Pharmacol. Exp. Ther. 237: no.3, 731-738, 1986.
The assay tubes contained the following: assay buffer: 50 mM Hepes, 0.2% BSA, pH 7.4 radioligand: 1ηM ^3H-D888 (Amersham) rat cortical membranes: 6 mg/ml original wet weight
This mixture was incubated for 60 minutes at 25° C. The assay was terminated by filtering with a Brandel Cell Harvester over Whatman GF/C filters that had been soaked for at least 120 minutes in 0.3% polyethylenamine (PEI) and washed three times with 5 mL of wash buffer containing 20 mM Hepes, 20 mM MgCl2, pH 7.4. Specific binding was measured with 10 μM methoxyverapamil (D-600). This assay was used to determine in vitro selectivity of compounds vs. L-type voltage sensitive calcium channels, i.e high affinity for the ^3H-D888 binding site would show a lack of selectivity.
Rat Brain Cortical Membrane Preparation
Male Sprague-Dawley Rats were sacrificed by decapitation and the brains were quickly excised. The cerebellum and brain stem were removed and discarded; and the rest of the brain was rinsed in 320 mM sucrose. […]

IC50 [1] [nM] | IC50 [2] [µM] | melting point [°C] | SMILES
9 | ~15 | – | CN1CCCN([C@H]2CCSc3ccccc32)CC1 [Example 5, S(+) 1-Methyl-4-(3,4-dihydro-2H-benzothiopyran-4yl)homopiperazine]
– | – | 148.2 to 148.6 | CC(C)CN1CCCN(C2CCSc3ccccc32)CC1 (centres unmarked) (as salt: maleate) [Example 7, 1-Isobutyl-4-(3,4-dihydro-2H-benzothiopyran-4-yl)homopiperazine]
– | – | 208 to 209 | CN1CCCN([C@H]2CCSc3ccccc32)CC1 (as salt: hydrochloride) [Example 5, S(+) 1-Methyl-4-(3,4-dihydro-2H-benzothiopyran-4yl)homopiperazine]
– | – | 117 to 118 | CN1CCCN(C2CCSc3ccccc32)CC1 (centres unmarked) (as salt: maleate) [Example 1, 1 -Methyl-4-(3,4-dihydro-2H-benzothiopyran-4-yl)homopiperazine]
